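All cell lines were grown in 96-well plates and treated with compound for 48 hours. TGI: concentration producing complete growth inhibition.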
How the values were obtained:
Experiment in all cases: NCI-60 cell line screen, 48 h
SK-OV-3 ovarian = test system: SK-OV-3 ovarian
CAKI-1 renal = test system: CAKI-1 renal
NCI-H226 lung = test system: NCI-H226 lung
ACHN renal = test system: ACHN renal
A498 renal = test system: A498 renal
SN12C renal = test system: SN12C renal
MDA-MB-231 breast = test system: MDA-MB-231 breast
SF-295 CNS = test system: SF-295 CNS
OVCAR-8 ovarian = test system: OVCAR-8 ovarian
MALME-3M melanoma = test system: MALME-3M melanoma
SW-620 colon = test system: SW-620 colon
SR leukemia = test system: SR leukemia
TK-10 renal = test system: TK-10 renal
SF-539 CNS = test system: SF-539 CNS
HT29 colon = test system: HT29 colon
SK-MEL-28 melanoma = test system: SK-MEL-28 melanoma
HCC-2998 colon = test system: HCC-2998 colon
UO-31 renal = test system: UO-31 renal
MOLT-4 leukemia = test system: MOLT-4 leukemia
HOP-92 NSCLC = test system: HOP-92 NSCLC
CCRF-CEM leukemia = test system: CCRF-CEM leukemia
SK-MEL-5 melanoma = test system: SK-MEL-5 melanoma
U251 CNS = test system: U251 CNS
786-0 renal = test system: 786-0 renal
NCI-H522 lung = test system: NCI-H522 lung
NCI-H460 lung = test system: NCI-H460 lung
BT-549 breast = test system: BT-549 breast
K-562 leukemia = test system: K-562 leukemia
OVCAR-5 ovarian = test system: OVCAR-5 ovarian
SF-268 CNS = test system: SF-268 CNS
PC-3 prostate = test system: PC-3 prostate
MCF7 breast = test system: MCF7 breast
IGROV1 ovarian = test system: IGROV1 ovarian
HCT-15 colon = test system: HCT-15 colon
HOP-62 NSCLC = test system: HOP-62 NSCLC
SK-MEL-2 melanoma = test system: SK-MEL-2 melanoma
KM12 colon = test system: KM12 colon
T-47D breast = test system: T-47D breast
HCT-116 colon = test system: HCT-116 colon
MDA-N = test system: MDA-N
M14 melanoma = test system: M14 melanoma
UACC-62 melanoma = test system: UACC-62 melanoma
COLO 205 colon = test system: COLO 205 colon
HS 578T breast = test system: HS 578T breast
OVCAR-3 ovarian = test system: OVCAR-3 ovarian
RXF 393 renal = test system: RXF 393 renal
NCI/ADR-RES ovarian = test system: NCI/ADR-RES ovarian
MDA-MB-435 = test system: MDA-MB-435
UACC-257 melanoma = test system: UACC-257 melanoma
OVCAR-4 ovarian = test system: OVCAR-4 ovarian
SNB-19 CNS = test system: SNB-19 CNS
A549 NSCLC = test system: A549 NSCLC
DU-145 prostate = test system: DU-145 prostate
SNB-75 CNS = test system: SNB-75 CNS
NCI-H23 lung = test system: NCI-H23 lung
HL-60(TB) leukemia = test system: HL-60(TB) leukemia
EKVX NSCLC = test system: EKVX NSCLC
LOX IMVI melanoma = test system: LOX IMVI melanoma
RPMI-8226 leukemia = test system: RPMI-8226 leukemia

CCOC(=O)c1ccc(NC(=O)O/N=C(/Cl)CC)cc1 showed a TGI (SK-OV-3 ovarian) of 31.7 µM, a TGI (CAKI-1 renal) of 8.72 µM and a TGI (NCI-H226 lung) of 40 µM. For the same compound, the TGI (ACHN renal) was 22.9 µM, the TGI (A498 renal) was 32.4 µM and the TGI (SN12C renal) was 39.3 µM. The TGI (MDA-MB-231 breast) was 42.5 µM, the TGI (SF-295 CNS) was 36.4 µM and the TGI (OVCAR-8 ovarian) was 30.4 µM. It also gave a TGI (MALME-3M melanoma) of 9.14 µM, a TGI (SW-620 colon) of 3.36 µM and a TGI (SR leukemia) of 11.6 µM. The TGI (TK-10 renal) was > 34.4 µM, the TGI (SF-539 CNS) was 33.6 µM and the TGI (HT29 colon) was 44.5 µM. For the same compound, the TGI (SK-MEL-28 melanoma) was 30.6 µM, the TGI (HCC-2998 colon) was 32.6 µM and the TGI (UO-31 renal) was 31.4 µM. For the same compound, the TGI (MOLT-4 leukemia) was 4.51 µM, the TGI (HOP-92 NSCLC) was 6.77 µM and the TGI (CCRF-CEM leukemia) was 4.54 µM. The TGI (SK-MEL-5 melanoma) was 29.5 µM, the TGI (U251 CNS) was 34.3 µM and the TGI (786-0 renal) was 13 µM. It also gave a TGI (NCI-H522 lung) of 6.81 µM, a TGI (NCI-H460 lung) of 40.9 µM and a TGI (BT-549 breast) of 59.5 µM. It also gave a TGI (K-562 leukemia) of 3.6 µM, a TGI (OVCAR-5 ovarian) of 34.3 µM and a TGI (SF-268 CNS) of 48 µM. It also gave a TGI (PC-3 prostate) of 33.3 µM, a TGI (MCF7 breast) of 30.9 µM and a TGI (IGROV1 ovarian) of 41.3 µM. It also gave a TGI (HCT-15 colon) of 28.9 µM, a TGI (HOP-62 NSCLC) of 38.1 µM and a TGI (SK-MEL-2 melanoma) of 31.9 µM. For the same compound, the TGI (KM12 colon) was 36.1 µM, the TGI (T-47D breast) was 19.8 µM and the TGI (HCT-116 colon) was 26.1 µM. The TGI (MDA-N) was 32.6 µM, the TGI (M14 melanoma) was 25.6 µM and the TGI (UACC-62 melanoma) was 45.4 µM. For the same compound, the TGI (COLO 205 colon) was 5.5 µM, the TGI (HS 578T breast) was 67.5 µM and the TGI (OVCAR-3 ovarian) was 3.5 µM. The TGI (RXF 393 renal) was 31.1 µM, the TGI (NCI/ADR-RES ovarian) was 22 µM and the TGI (MDA-MB-435) was 34.6 µM. It also gave a TGI (UACC-257 melanoma) of 29.8 µM, a TGI (OVCAR-4 ovarian) of 10.1 µM and a TGI (SNB-19 CNS) of 45.5 µM. For the same compound, the TGI (A549 NSCLC) was > 60.8 µM, the TGI (DU-145 prostate) was 33.5 µM and the TGI (SNB-75 CNS) was 28.2 µM. It also gave a TGI (NCI-H23 lung) of 39.9 µM, a TGI (HL-60(TB) leukemia) of 6.47 µM and a TGI (EKVX NSCLC) of 32.2 µM.
In the case of Nc1ccc(I)cn1, the TGI (SK-OV-3 ovarian) was > 100 µM, the TGI (CAKI-1 renal) was > 100 µM and the TGI (NCI-H226 lung) was > 100 µM. For the same compound, the TGI (ACHN renal) was > 100 µM, the TGI (A498 renal) was > 100 µM and the TGI (SN12C renal) was > 100 µM. For the same compound, the TGI (MDA-MB-231 breast) was > 100 µM, the TGI (SF-295 CNS) was > 100 µM and the TGI (OVCAR-8 ovarian) was > 100 µM. For the same compound, the TGI (MALME-3M melanoma) was > 100 µM, the TGI (SW-620 colon) was > 100 µM and the TGI (SR leukemia) was > 100 µM. The TGI (HT29 colon) was > 100 µM, the TGI (SK-MEL-28 melanoma) was > 100 µM and the TGI (HCC-2998 colon) was > 100 µM. For the same compound, the TGI (UO-31 renal) was > 100 µM, the TGI (MOLT-4 leukemia) was > 100 µM and the TGI (CCRF-CEM leukemia) was > 100 µM. The TGI (SK-MEL-5 melanoma) was > 100 µM, the TGI (U251 CNS) was > 100 µM and the TGI (786-0 renal) was > 100 µM. For the same compound, the TGI (NCI-H522 lung) was > 100 µM, the TGI (NCI-H460 lung) was > 100 µM and the TGI (BT-549 breast) was > 100 µM. The TGI (LOX IMVI melanoma) was > 100 µM, the TGI (K-562 leukemia) was > 100 µM and the TGI (OVCAR-5 ovarian) was > 100 µM. The TGI (SF-268 CNS) was > 100 µM, the TGI (PC-3 prostate) was > 100 µM and the TGI (MCF7 breast) was > 100 µM. The TGI (IGROV1 ovarian) was > 100 µM, the TGI (HCT-15 colon) was > 100 µM and the TGI (HOP-62 NSCLC) was > 100 µM. For the same compound, the TGI (SK-MEL-2 melanoma) was > 100 µM, the TGI (KM12 colon) was > 100 µM and the TGI (T-47D breast) was > 100 µM. The TGI (HCT-116 colon) was > 100 µM, the TGI (MDA-N) was > 100 µM and the TGI (M14 melanoma) was > 100 µM. For the same compound, the TGI (UACC-62 melanoma) was > 100 µM, the TGI (COLO 205 colon) was > 100 µM and the TGI (HS 578T breast) was > 100 µM. The TGI (OVCAR-3 ovarian) was > 100 µM, the TGI (RXF 393 renal) was > 100 µM and the TGI (NCI/ADR-RES ovarian) was > 100 µM. The TGI (MDA-MB-435) was > 100 µM, the TGI (OVCAR-4 ovarian) was > 100 µM and the TGI (SNB-19 CNS) was > 100 µM. The TGI (A549 NSCLC) was > 100 µM, the TGI (DU-145 prostate) was > 100 µM and the TGI (SNB-75 CNS) was > 100 µM. For the same compound, the TGI (NCI-H23 lung) was > 100 µM, the TGI (RPMI-8226 leukemia) was > 100 µM and the TGI (HL-60(TB) leukemia) was > 100 µM. For the same compound, the TGI (EKVX NSCLC) was > 100 µM.
